Laboratory results reported in patent US8633206B2, “Pyrrolo[2,3-D]pyrimidine compounds” (Pfizer Inc., priority 2009, dated 2014).
pIC50: −log10 of the molar value.

Key:
Assay type in all cases: biochemical
JAK3 = JAK3 (Homo sapiens (Human), UniProt P52333); assay: JAK enzymatic assay (peptide mobility shift), JAK3; details: recombinant JAK3 1 nM, JAKtide peptide, 90 minutes
JAK2 = JAK2 (Homo sapiens (Human), UniProt O60674); assay: JAK enzymatic assay (peptide mobility shift), JAK2; details: recombinant JAK2 2 nM, JAKtide peptide, 150 minutes
Excerpt: Recombinant JAK1 (Catalog Number PV4775), JAK2 (Catalog Number PV4210) and JAK3 (Catalog Number PV3855) were purchased from (Invitrogen Corporation, Madison, Wis.). Tyk2 (His-Tyk2 (888-1182, C936S, C1142S)) used in this study was expressed and purified at Pfizer Laboratories. Adenosine 5′-triphosphate (ATP) was obtained from (Sigma Chemical Company, St. Louis, Mo.). […] Coating Reagent 3 was purchased from (Caliper Life Sciences, Hopkinton, Mass.).
A peptide mobility shift assay was used to quantify the phosphorylation of the JAKtide (JAK2 and JAK3) or the IRS-1 peptide (JAK1 and Tyk2). Reactions were carried out in a 384-well plate (Matrical MP-101) in a 10 L total volume. […] Compounds were diluted serially in 100% dimethyl sulfoxide and tested in an 11 point dose response in duplicate or quadruplicate (200 nl of compound/DMSO was added per 10 L reaction). The reactions were initiated by the addition of enzyme to the final concentration of 2 nM JAK2, 1 nM JAK3, 12 nM Tyk2 or 20 nM JAK1. The assay was run for 240 minutes for JAK1, 150 minutes for JAK2, 90 minutes for JAK3 and 70 minutes for Tyk2. The assays were stopped at the specified times with 20 uL of 140 mM HEPES, 22.5 mM EDTA and 0.15% Coating Reagent 3. The plates were placed on a LabChip 3000 (LC3000) instrument from (Caliper Life Sciences) to measure the formation of phosphorylated peptide. Data was analyzed using Hits Well Analyzer Software from (Caliper Life Sciences) to obtain the amount of product formed.
Data was then imported into an internal application where each data point is expressed as % inhibition based on uninhibited and no enzyme controls. Dose-response data is then fit using a 4 parameter logistic equation (Equation 1) to determine an IC50.

JAK1 = JAK1 (Homo sapiens (Human), UniProt P23458); assay: JAK enzymatic assay (peptide mobility shift), JAK1; details: recombinant JAK1 20 nM, IRS-1 peptide, 240 minutes
Chain of JAK1 (P23458 whole entry): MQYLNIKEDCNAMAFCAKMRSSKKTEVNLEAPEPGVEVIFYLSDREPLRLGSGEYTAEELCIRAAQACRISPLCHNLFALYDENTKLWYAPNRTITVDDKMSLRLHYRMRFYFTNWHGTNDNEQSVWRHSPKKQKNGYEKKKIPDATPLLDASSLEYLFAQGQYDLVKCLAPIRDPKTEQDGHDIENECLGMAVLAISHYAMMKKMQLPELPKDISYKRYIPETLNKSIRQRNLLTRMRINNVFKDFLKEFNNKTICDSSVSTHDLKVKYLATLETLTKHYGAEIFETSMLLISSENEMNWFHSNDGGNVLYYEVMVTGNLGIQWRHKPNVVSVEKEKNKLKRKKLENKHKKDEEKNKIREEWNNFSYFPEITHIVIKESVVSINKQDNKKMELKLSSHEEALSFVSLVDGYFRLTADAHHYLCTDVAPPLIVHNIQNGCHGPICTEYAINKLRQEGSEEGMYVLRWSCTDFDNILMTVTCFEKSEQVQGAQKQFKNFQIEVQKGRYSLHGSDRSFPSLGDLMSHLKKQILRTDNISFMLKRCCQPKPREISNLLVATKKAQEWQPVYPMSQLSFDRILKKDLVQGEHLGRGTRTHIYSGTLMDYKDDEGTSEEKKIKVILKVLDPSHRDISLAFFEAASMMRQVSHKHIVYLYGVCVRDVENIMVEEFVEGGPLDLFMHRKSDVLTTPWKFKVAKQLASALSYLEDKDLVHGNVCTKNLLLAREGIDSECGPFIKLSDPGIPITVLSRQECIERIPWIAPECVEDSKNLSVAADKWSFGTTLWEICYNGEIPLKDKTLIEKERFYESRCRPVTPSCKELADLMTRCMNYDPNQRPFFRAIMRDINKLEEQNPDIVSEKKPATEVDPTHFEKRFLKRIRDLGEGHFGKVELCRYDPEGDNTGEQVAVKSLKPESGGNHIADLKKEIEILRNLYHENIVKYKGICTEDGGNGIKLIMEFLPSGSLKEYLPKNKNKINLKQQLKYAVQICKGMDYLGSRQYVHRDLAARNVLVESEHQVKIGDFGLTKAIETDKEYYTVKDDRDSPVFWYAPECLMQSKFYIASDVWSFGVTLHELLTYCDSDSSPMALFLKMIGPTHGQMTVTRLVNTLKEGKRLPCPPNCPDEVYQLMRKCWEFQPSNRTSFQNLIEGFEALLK

Chain of JAK3 (P52333 781-1124): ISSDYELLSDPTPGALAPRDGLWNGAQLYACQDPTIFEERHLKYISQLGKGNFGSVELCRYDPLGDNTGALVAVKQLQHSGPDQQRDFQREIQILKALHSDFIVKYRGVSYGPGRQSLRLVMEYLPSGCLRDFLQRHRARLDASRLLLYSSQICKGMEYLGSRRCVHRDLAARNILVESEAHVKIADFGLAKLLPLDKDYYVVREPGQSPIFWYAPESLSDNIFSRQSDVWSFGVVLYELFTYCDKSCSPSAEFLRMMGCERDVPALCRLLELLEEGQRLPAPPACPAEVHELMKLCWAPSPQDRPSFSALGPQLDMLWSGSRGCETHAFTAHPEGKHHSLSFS
Chain of JAK2 (O60674 808-1132): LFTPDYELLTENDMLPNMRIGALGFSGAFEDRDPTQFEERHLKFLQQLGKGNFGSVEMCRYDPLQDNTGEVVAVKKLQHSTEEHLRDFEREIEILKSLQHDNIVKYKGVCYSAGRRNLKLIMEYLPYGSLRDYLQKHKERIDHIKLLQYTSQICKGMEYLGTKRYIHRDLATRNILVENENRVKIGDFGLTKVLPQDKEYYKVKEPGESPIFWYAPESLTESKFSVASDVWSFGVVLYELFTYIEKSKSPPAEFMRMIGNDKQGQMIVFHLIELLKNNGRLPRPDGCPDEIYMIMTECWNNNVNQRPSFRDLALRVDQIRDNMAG

Compound | pIC50 (JAK3) | pIC50 (JAK2) | pIC50 (JAK1)
CN(c1ncnc2[nH]ccc12)[C@H]1CC[C@H](CS(=O)(=O)N2CC[C@@H](CC#N)C2)CC1 [Example 35, {(3S)-1-[({trans-4-[methyl(7H-pyrrolo[2,3-d]pyrimidin-4-yl)amino]cyclohexyl}methyl)-sulfonyl]pyrrolidin-3-yl}acetonitrile] | 6.35 | 7.28 | 7.95
CC1CN(S(=O)(=O)C[C@H]2CC[C@H](N(C)c3ncnc4[nH]ccc34)CC2)CCN1C (stereo partly drawn) [Example 38, N-(trans-4-{[(3,4-dimethylpiperazin-1-yl)-sulfonyl]methyl}cyclo-hexyl)-N-methyl-7H-pyrrolo-[2,3-d]pyrimidin-4-amine] | 5.72 | 6.90 | 7.94
CN(c1ncnc2[nH]ccc12)[C@H]1CC[C@@H](CS(=O)(=O)N2CCC[C@H](C#N)C2)CC1 [Example 39, 1-[({cis-4-[methyl(7H-pyrrolo[2,3-d]pyrimidin-4-yl)amino]cyclohexyl}-methyl)sulfonyl]piperidine-3-carbonitrile] | 6.41 | 7.12 | 7.63
COC1CCN(S(=O)(=O)C[C@H]2CC[C@H](N(C)c3ncnc4[nH]ccc34)CC2)CC1 [Example 41, N-(trans-4-{[(4-methoxy-piperidin-1-yl)-sulfonyl]-methyl}cyclohexyl)-N-methyl-7H-pyrrolo[2,3-d]-pyrimidin-4-amine] | 6.20 | 6.97 | 7.66
CN(c1ncnc2[nH]ccc12)[C@H]1CC[C@H](CS(=O)(=O)N2CCC(C#N)CC2)CC1 [Example 42, 1-[({trans-4-[methyl(7H-pyrrolo[2,3-d]pyrimidin-4-yl)amino]cyclohexyl}-methyl)sulfonyl]piperidine-4-carbonitrile] | 6.37 | 7.17 | 7.78
COCC1CCN(S(=O)(=O)C[C@H]2CC[C@H](N(C)c3ncnc4[nH]ccc34)CC2)CC1 [Example 43, N-[trans-4-({[4-(methoxy-methyl)piperidin-1-yl]-sulfonyl}methyl)-cyclohexyl]-N-methyl-7H-pyrrolo[2,3-d]pyrimidin-4-amine] | 6.36 | 7.15 | 7.89
CCC1(C(N)=O)CCN(S(=O)(=O)C[C@H]2CC[C@H](N(C)c3ncnc4[nH]ccc34)CC2)CC1 [Example 44, 4-ethyl-1-[({trans-4-[methyl(7H-pyrrolo[2,3-d]-pyrimidin-4-yl)amino]-cyclohexyl}methyl)sulfonyl] piperidine-4-carboxarnide] | 6.45 | 7.21 | 8.10
CN(c1ncnc2[nH]ccc12)[C@H]1CC[C@H](CS(=O)(=O)N2CCC(C(C)(C)O)CC2)CC1 [Example 47, 2-{1-[({trans-4-[methyl(7H-pyrrolo[2,3-d]pyrimidin-4-yl)amino]cyclohexyl}methyl)-sulfonyl]piperidin-4-yl}propan-2-ol] | 6.40 | 7.16 | 7.87
Cc1ccc(CC2CCN(S(=O)(=O)C[C@H]3CC[C@H](N(C)c4ncnc5[nH]ccc45)CC3)CC2)nn1 [Example 48, N-methyl-N-{trans-4-[({4-[(6-methylpyridazin-3-yl)methyl]piperidin-1-yl}sulfonyl)methyl]cyclo-hexyl}-7H-pyrrolo[2,3-d]-pyrimidin-4-amine] | 6.12 | 7.07 | 7.64
CN(c1ncnc2[nH]ccc12)[C@H]1CC[C@H](CS(=O)(=O)N2CCC(c3nc(CS(C)(=O)=O)no3)CC2)CC1 [Example 50, N-methyl-N-(trans-4-{[(4-{3-[(methylsulfonyl)-methyl]-1,2,4-oxadiazol-5-yl}piperidin-1-yl)sulfonyl]-methyl)cyclohexyl)-7H-pyrrolo[2,3-d]pyrimidin-4-amine] | 6.24 | 7.18 | 8.08
CC1CCN(S(=O)(=O)C[C@H]2CC[C@H](N(C)c3ncnc4[nH]ccc34)CC2)CC1 [Example 51, N-methyl-N-(trans-4-{[(4-methylpiperidin-1-yl)sulfonyl]-methyl}cyclohexyl)-7H-pyrrolo[2,3-d]pyrimidin-4-amine] | 6.11 | 7.07 | 7.79
CCN(CC)C(=O)C1CCN(S(=O)(=O)C[C@H]2CC[C@H](N(C)c3ncnc4[nH]ccc34)CC2)CC1 [Example 52, N,N-diethyl-1-[({trans-4-[methyl(7H-pyrrolo[2,3-d]-pyrimidin-4-yl)amino]-cyclohexyl}methyl)sulfonyl] piperidine-4-carboxamide] | 5.91 | 6.94 | 7.65
CNC(=O)C1CCN(S(=O)(=O)C[C@H]2CC[C@H](N(C)c3ncnc4[nH]ccc34)CC2)CC1 [Example 54, N-methyl-1-[({trans-4-[methyl(7H-pyrrolo[2,3-d]-pyrimidin-4-yl)amino]-cyclohexyl}methyl)sulfonyl] piperidine-4-carboxamide] | 6.42 | 7.35 | 7.66
CN(c1ncnc2[nH]ccc12)[C@H]1CC[C@H](CS(=O)(=O)N2CCC(CC(N)=O)CC2)CC1 [Example 55, 2-{1-[({trans-4-[methyl(7H-pyrrolo[2,3-d]pyrimidin-4-yl)amino]cyclohexyl}-methyl)sulfonyl]piperidin-4-yl}-acetamide] | 6.17 | 7.07 | 7.70
CN(C)S(=O)(=O)C[C@H]1CCCN(S(=O)(=O)C[C@H]2CC[C@H](N(C)c3ncnc4[nH]ccc34)CC2)C1 [Example 57, N,N-dimethyl-1-{1-[({trans-4-[methyl(7H-pyrrolo[2,3-d]pyrimidin-4-yl)amino]-cyclohexyl}methyl)sulfonyl]piperidin-3-yl}-methanesulfonamide] | 6.34 | 7.29 | 8.11

These reach a higher pIC50 (JAK3). Values come first.

pIC50 (JAK3) | pIC50 (JAK2) | pIC50 (JAK1) | Compound
6.66 | 7.78 | 8.13 | CN(c1ncnc2[nH]ccc12)[C@H]1CC[C@H](CS(=O)(=O)N2CC[C@@H](F)C2)CC1 [Example 34, N-[trans-4-({[(3R)-3-fluoropyrrolidin-1-yl]sulfonyl}methyl)cyclo-hexyl]-N-methyl-7H-pyrrolo-[2,3-d]pyrimidin-4-amine]
6.91 | 7.73 | 8.27 | CN(c1ncnc2[nH]ccc12)[C@H]1CC[C@H](CS(=O)(=O)N2C[C@@H](O)[C@H](C#N)C2)CC1 [Example 36, (3S,4S)-4-hydroxy-1-[({trans-4-[methyl(7H-pyrrolo[2,3-d]pyrimidin-4-yl)amino]cyclohexyl}methyl)-sulfonyl]pyrrolidine-3-carbonitrile]
6.98 | 8.09 | 8.84 | CN(c1ncnc2[nH]ccc12)[C@H]1CC[C@H](CS(=O)(=O)N2CCC[C@@H](O)C2)CC1 [Example 40, (3R)-1-[({trans-4-[methyl(7H-pyrrolo[2,3-d]pyrimidin-4-yl)amino]-cyclohexyl}methyl)sulfonyl]piperidin-3-ol]
7.40 | 8.05 | 8.80 | COCCC1(C(N)=O)CCN(S(=O)(=O)C[C@H]2CC[C@H](N(C)c3ncnc4[nH]ccc34)CC2)CC1 [Example 45, 4-(2-methoxyethyl)-1-[({trans-4-[methyl(7H-pyrrolo[2,3-d]pyrimidin-4-yl)amino]cyclohexyl}-methyl)sulfonyl]piperidine-4-carboxamide]
6.78 | 7.75 | 8.22 | CN(c1ncnc2[nH]ccc12)[C@H]1CC[C@H](CS(=O)(=O)N2CCC(Cc3ncccn3)CC2)CC1 [Example 46, N-methyl-N-[trans-4-({[4-(pyrimidin-2-ylmethyl)-piperidin-1-yl]sulfonyl}-methyl)cyclohexyl]-7H-pyrrolo[2,3-d]pyrimidin-4-amine]
6.77 | 7.22 | 8.39 | CN(c1ncnc2[nH]ccc12)[C@H]1CC[C@H](CS(=O)(=O)N2CCC(COCC3CC3)CC2)CC1 [Example 56, N-{trans-4-[({4-[(cyclopropyl-methoxy)-methyl]piperidin-1-yl}-sulfonyl)-methyl]-cyclohexyl}-N-methyl-7H-pyrrolo[2,3-d]-pyrimidin-4-amine]
6.76 | 7.74 | 8.49 | CN(c1ncnc2[nH]ccc12)[C@H]1CC[C@H](CS(=O)(=O)N2CCC[C@H](O)C2)CC1 [Example 58, 1-[({trans-4-[methyl(7H-pyrrolo[2,3-d]pyrimidin-4-yl)-amino]cyclohexyl}-methyl)sulfonyl]piperidin-3-ol]
6.69 | 7.63 | 8.77 | CO[C@@H]1CCCN(S(=O)(=O)C[C@H]2CC[C@H](N(C)c3ncnc4[nH]ccc34)CC2)C1 [Example 60, N-(trans-4-{[(3-methoxy-piperidin-1-yl)sulfonyl]-methyl}cyclohexyl)-N-methyl-7H-pyrrolo[2,3-d]-pyrimidin-4-amine]
